We go through 13 compounds from patent publication US6906061B2, “Pharmaceutical agent containing Rho kinase inhibitor” (Mitsubishi Pharma Corporation, priority 1996, dated 2005).

Data set [1] concerns mouse femoral bone. As to the kind of experiment: Inhibition of bone resorption (in vitro), mouse femoral bone. The note with it: 144 h, 6 days incubation of ICR mouse femoral bone. The protocol:
Inhibition of Bone Resorption (in vitro)
The determination of the in vitro inhibition of bone resorption using mouse femoral bone followed the method below.
The femoral bone of 3-6 week old male ICR mice was aseptically removed, and bone marrow cavity was washed with F12 medium, containing 10% heat inactivated fetal bovine serum, penicillin G calcium (100 units/ml), kanamycin sulfate (60 μg) and 0.15% sodium hydrogencarbonate (hereinafter the medium is to be referred to as culture solution). After washing the bone marrow cavity and then removing the soft tissue adhered to the bone, the bone was subjected to incubation. The test compound was once dissolved in dimethyl sulfoxide (DMSO) to give a 10 mg/ml solution, which was diluted 1000-fold with the culture solution to give a 10 μg/ml solution. The test compounds were respectively added to the concentration shown in Table 7 and, using this culture solution (1.2 ml), the ICR mouse femoral bone was incubated in a 24 well plate for 6 days under the conditions of 5% CO2 gas, 95% air. After the completion of the incubation, the culture supernatant was recovered, and the amount of calcium suspending in the culture supernatant was quantitatively determined by the chelate method using o-cresolphthalein. The bone resorption inhibitory action of the test compound was calculated by the following formula using the incubation of the femoral bone without addition of the test compound as a control. [formula] This experiment was done with 4 cases in each group. As the control, the same amount of DMSO alone as in the case with the addition of the test compound was used.

Data set [2] concerns BALB/c spleen cells stimulated with C57BL/6 spleen cells. Put plainly: Inhibition of mouse allogenic mixed lymphocyte reaction. It is filed as cell-based. The note with it: Mus musculus, Lymphocyte, 96 h; 4 days culture, MTT; read-out: Mouse allogenic MLR inhibitory activity IC50. The method, then:
Inhibition of Mouse Allogenic Mixed Lymphocyte Reaction
A mouse allogenic mixed lymphocyte reaction (hereinafter to be referred to as mouse allogenic MLR) was performed by mixed culture (equal ratio) of the spleen cell of BALB/c mice as the reaction cell and the spleen cell of C57BL/6 mice treated with mitomycin C as stimulated cell.
The reaction cells were prepared by the following method. Spleen was removed from 5-6 week old BALB/c mice and treated with RPMI1640 medium (containing kanamycin sulfate (60 μg/ml), penicillin G potassium (100 units/ml), N-2-hydroxyethylpiperazine-N′-2-ethanesulfonate (10 mM), 0.1% sodium hydrogencarbonate and L-glutamin (2 mM)) supplemented with 5% heat inactivated fetal bovine serum (FBS) to give a single cell suspension of the spleen cell. After hemolysis treatment, the suspension was adjusted to10^7 cells/ml with RPMI1640 medium containing 10^−4 M 2-mercaptoethanol and 10% FBS and used as a reaction cell suspension.
The reaction cell suspension (50 μl) prepared by the above method, stimulated cell suspension (50 μl) and the test compound (100 μl) prepared using RPMI1640 medium containing 10% FBS were added to a 96 well plate and incubated at 37° C. under 5% CO2 gas, 95% air for 4 days.
A pigment assay using 3-(4,5-dimethylthiazol-2-yl)-2,5-diphenyltetrazolium bromide (MTT) was applied for the determination of lymphocyte transformation reaction.
After the completion of culture, the supernatant (100 μl) in each well was removed, and 5 mg/ml MTT solution (20 μl) was added to each well, which was followed by incubation at 37° C. for 4 hours. Then, a 0.01 N hydrochloric acid solution (100 μl) containing 10% sodium dodecyl sulfate was added and the mixture was incubated at 37° C. overnight. The resulting purple crystals of formazan was dissolved and absorbance at 550 nm was measured using a microplate absorption meter, which was used as the index of lymphocyte transformation reaction of the mouse allogenic MLR. The inhibition of mouse allogenic MLR was evaluated by calculating the inhibition percentage by the following formula The results are shown in Table 7.

The subject of data set [3] is hind limb skin blood flow. As to the kind of experiment: Peripheral blood flow increasing action in STZ-induced diabetic rats. It is filed as in vivo, rat. The following applies: intravenous. The protocol:
Peripheral Blood Flow Increasing Action
Streptozotocin (STZ, 65 mg/kg) was intravenously injected to male SD rats (body weight 200-300 g) to prepare diabetic rats. One month later, STZ-induced diabetic rats were anesthetized with pentobarbital sodium and the blood flow in the hind limb skin was measured with laser blood flowmeter (ALF21R, Advance). The test compound was intravenously administered via catheter dwelled in the carotid arteries, and hind limb skin blood flow increasing action was observed. The blood flow increasing action of the test compound was expressed by increase percentage from the blood flow before administration.

Data set [4] deals with Bovine Aorta Thoracia Rho Kinase. As to the kind of experiment: Rho kinase inhibitory action (inhibition of bovine aorta thoracia Rho kinase). The note with it: test compound 10 μM. It is filed as biochemical. The method, then:
Rho Kinase Inhibitory Action (Inhibition of Bovine Aorta Thoracia Rho Kinase)
The Rho kinase was prepared from bovine aorta of thorax by partial purification as in the following. The artery was minced and homogenized with a 9-fold amount of 50 mM Tris-hydroxymethylaminomethane (Tris) (pH=7.4), 1 mM dithiothreitol, 1 mM EGTA, 1 mM EDTA, 100 μM p-amidinophenylmethylsulfonyl fluoride, 5 μM E-64, 5 μM leupeptine and 5 μM pepstatin A. The homogenate was centrifuged (10,000×g, 30 minutes) to give supernatant. The supernatant was adsorbed onto a hydroxyapatite column. The column was washed with 0.2M phosphate buffer (pH=6.8). The standard product of Rho kinase was eluted with 0.4M phosphate buffer (pH=6.8). The Rho kinase was assayed as follows.
A reaction mixture (total amount 50 μl) containing 50 mM Tris, 1 mM EDTA, 5 mM MgCl2, 50 μg/ml histone, 10 μM GTPγS, 100 μg/ml Rho, 2 μM [^32P]ATP, the Rho kinase (3 μl) prepared in the above and the test compound was reacted at 30° C. for 5 minutes. The reaction was terminated by the addition of 25% trichloroacetic acid (TCA) solution (1 ml) and the mixture was stood at 4° C. for 30 minutes. Then, the mixture was filtered through a membrane filter (HAWP type, Millipore), and the radioactivity of the filter was counted on a liquid scintillation counter. The inhibitory action of the test compound was calculated from the following formula based on the comparison of the radioactivity with the sample without the test compound (control).

The subject of data set [5] is CEM cells (human T cell type established cell). As to the kind of experiment: Inhibition of VLA integrin activation (phorbol ester-induced adhesion of CEM cells to fibronectin). The class given is cell-based. The note with it: CCRF-CEM, concentration 100 μM, PMA-induced adhesion, read-out: Adhesion induction inhibition (%). The protocol: Inhibition of VLA (Very Late Antigen) Integrin Activation
As the index of the activation by VLA integrin, phorbol ester-induced adhesion of CEM cells (human T cell type established cell) to fibronectin, which is a ligand of VIA integrin, was measured. The inhibitory action on the induced adhesion by the test compound was determined by the following method.
CEM cells were washed with RPMI1640 medium containing 0.5% bovine serum albumin (BSA), 10 mM HEPES, 2 mM L-glutamin, 1 mM sodium pyruvate, 60 μg/ml kanamycin sulfate and 1.5 mg/ml sodium hydrogencarbonate (hereinafter this medium is referred to as culture solution) and suspended in this medium for use in the following experiment. To each well of a 96 well plate coated with human fibronectin were added CEM cells (5×10^4) and the test compound dissolved in the culture solution (final concentration 1-100 μM) to the amount of 100 μl, and the plate was stood at 37° C. for 1 hour. Then, PMA (phorbol 12-myristate 13-acetate, TPA; final concentration 10 ng/ml) and the test compound were added to the amount of 200 μl, and the plate was stood at 37° C. for 30 minutes. Each well was washed twice with the culture solution (200 μL) at 37° C., and the LDH (lactate dehydrogenase) activity of the cells adhered to the plate was determined, whereby the amount of the adhered cell was measured. Based on the results obtained by the above-mentioned method, the inhibitory action of the test compound on the induced adhesion was calculated by the following formula The results are shown in Table 6. Inhibition (%) of adhesion induction=(a−b)/(a−c)×100 • a=number of cells adhered with the addition of PMA • b=number of cells adhered with the addition of test compound and PMA • c=number of cells adhered without stimulation

Data set [6] relates to normal human umberical vascular endothelial cells. As to the kind of experiment: Inhibition of angiogenesis (lumen formation in vascular endothelial cells). The note with it: 18 hours, compared with the control, number rises with inhibition of lumen formation. It is filed as cell-based. The method, then: Inhibition of Angiogenesis
The inhibition of angiogenesis was evaluated by using the inhibition of lumen formation in vascular endothelial cell as an index. To be specific, normal human umberical vascular endothelial cells (KURABO […] LTD.) were suspended in E-GMUV medium at 5.5×10^4 cells/ml and 400 μl therefrom was added on matrigel plate (EHS sarcoma-derived reconstructed basement membrane, Collaborative Biomedical Products). Then, the test compound (1 mM solution, 4 μl) was added and the cells were incubated at 37° C. under 5% CO2 gas for 18 hours. After the completion of the incubation, the number of lumen per predetermined area was counted under a microscope. Inasmuch as the number of lumen increases by the inhibition of lumen formation, the test compound was evaluated by comparison of the number of lumen with the control.

Counter-ions that a name gives are not always drawn.

As for `O=C(Nc1ccnc2[nH]ccc12)C1CCNCC1` (as salt: hydrochloride) (hydrate or solvate) [Compound 193, N-(1H-pyrrolo[2,3-b]pyridin-4-yl)-4-piperidinecarboxamide], the melting point was 273 °C (dec.).

For `O=C(Nc1ccnc2[nH]ncc12)C1CCNCC1` (as salt: hydrochloride) (hydrate or solvate) [Compound 194, N-(1H-pyrazolo[3,4-b]pyridin-4-yl)-4-piperidinecarboxamide], the melting point is 277 °C (dec.). On to `O=C(Nc1ccnc2c1CCN2)C1CCNCC1` (as salt: hydrochloride) (hydrate or solvate) [Compound 197, N-(2,3-dihydro-1H-pyrrolo[2,3-b]pyridin-4-yl)-4-piperidinecarboxamide], for which the melting point was 235 °C (dec.). For the compound `O=C(Nc1ccnc2[nH]ccc12)C1CCN(CCc2ccccc2)CC1` (as salt: hydrochloride) (hydrate or solvate) [Compound 198, N-(1H-pyrrolo[2,3-b]pyridin-4-yl)-1-(2-phenylethyl)-4-piperidinecarboxamide], the melting point was 272 °C (dec.). In the case of `N=C(N)N1CCC(C(=O)Nc2ccnc3[nH]ccc23)CC1` (as salt: hydrochloride) (hydrate or solvate) [Compound 199, N-(1H-pyrrolo[2,3-b]pyridin-4-yl)-1-amidino-4-piperidinecarboxamide], the melting point was 246 °C (dec.). `O=C(Nc1ccnc2[nH]ccc12)C1CCN(Cc2ccccc2)CC1` (as salt: hydrochloride) (hydrate or solvate) [Compound 201, N-(1H-pyrrolo[2,3-b]pyridin-4-yl)-1-benzyl-4-piperidinecarboxamide]: the melting point was 260 °C (dec.). Still for that read-out and setting: the value for `O=C(Nc1ccnc2[nH]ncc12)C1CCN(CCc2ccccc2)CC1` (as salt: hydrochloride) (hydrate or solvate) [Compound 202, N-(1H-pyrazolo[3,4-b]pyridin-4-yl)-1-(2-phenylethyl)-4-piperidinecarboxamide] was 259 to 261 °C (dec.); that for `O=C(Nc1ccnc2[nH]ncc12)C1CCN(CCCc2ccccc2)CC1` (as salt: hydrochloride) (hydrate or solvate) [Compound 203, N-(1H-pyrazolo[3,4-b]pyridin-4-yl)-1-(3-phenylpropyl)-4-piperidinecarboxamide] was 240 to 244 °C (dec.); that for `O=C(Nc1ccnc2[nH]ccc12)C1CCN(CCCc2ccccc2)CC1` (as salt: hydrochloride) [Compound 200, N-(1H-pyrrolo[2,3-b]pyridin-4-yl)-1-(3-phenylpropyl)-4-piperidinecarboxamide] was 276 °C (dec.). As for `COCn1ncc2c(NC(=O)C3CCNCC3)ccnc21` (hydrate or solvate) [Compound 196, N-(1-methoxymethyl-1H-pyrazolo[3,4-b]pyridin-4-yl)-4-piperidinecarboxamide], the melting point is 240 to 241 °C.

`CC(N)[C@H]1CC[C@H](C(=O)Nc2ccnc3[nH]ncc23)CC1` (single isomer, unassigned; (+)) [Compound 112.2HCl, (+)-trans-N-(1H-pyrazolo[3,4-b]pyridin-4-yl)-4-(1-aminoethyl)cyclohexanecarboxamide] registered an inhibition at 100 µM in data set [1] of 75.7%. Further, in data set [2], the concentration for half-maximal inhibition (IC50) came to 4.4 µM. `C[C@@H](N)c1ccc(C(=O)Nc2ccnc3[nH]ncc23)cc1` [Compound 166.2HCl.H2O, (R)-(+)-N-(1H-pyrazolo[3,4-b]pyridin-4-yl)-4-(1-aminoethyl)benzamide]: the “Increase in skin blood flow ± standard error (%)” value in data set [3] (0.3 μg) worked out at 143.2 ± 25.4%; in data set [3] (1 μg), 165.9 ± 42.5%. For the compound `O=S(=O)(c1cccc2cnccc12)N1CCCNCC1` [Compound 204.2HCl, 1-(5-isoquinolinesulfonyl)homopiperazine], in data set [4], the “Inhibition (%)” value amounted to 93%. Besides, the inhibition at 100 µM in data set [5] was found to be 82%. Besides, in data set [6], the “Number of lumen (10 μM)” value came to 133%.

For orientation: melting point means the temperature, or range, at which the solid turns liquid. In general, inhibition refers to the change of the read-out against control, counted positive when it falls. One may read the IC50 as the concentration needed to halve the response being measured.
